In PubChem BioAssay AID1918949 (Molecular Pharmacology Branch, DTP, NCI, 2023):
Several values for one entry are separate records, joined by “and”; a condition that tells them apart may be missing. Identical values can stand only once.

Test system: K24384-001-R-PDC complex spheroid viability
Assay: Anticancer human tumor K24384-001-R-PDC patient-derived pancreatic adenocarcinoma cell line growth inhibition
Details: for viability, T/C: stronger effect = lower value
Text: Multicellular complex tumor spheroid response to LSD1 Inhibitor Iadademstat in combination with a variety of drugs and investigational agents in selected tumor cell lines
The current study was undertaken to assess response to LSD1 inhibitors in combination with standard-of-care drugs and investigational agents in solid tumor complex spheroid models as well as in the K-562 leukemia. Complex spheroids include a stromal component modeled by human endothelial cells (HUVEC) and fibroblasts modeled by human mesenchymal stem cells (MSCs). The concentration ranges selected for each drug and investigational agent were based upon clinically achievable concentrations if the clinical Cmax of the agent was known.
Compounds. The drugs and investigational agents used in this study are listed on Table 1. All of the agents used, including staurosporine (NSC755774) and gemcitabine (NSC613327), were obtained from the Developmental Therapeutics Program, NCI. FDA-approved anticancer drugs are available from the NCI at http://dtp.nci.nih.gov/branches/dscb/oncology_drugset_explanation.html. Drugs and investigational agents were >95% pure by proton nuclear magnetic resonance (NMR) and liquid chromatography/mass spectrometry (LC/MS). Stock solutions were prepared at 400x in DMSO, stored at -70 degrees C, and diluted in fresh medium prior to their use. The final concentration of DMSO in cell culture wells never exceeded 0.25% (v/v). The FDA-approved anticancer drug set is available from the Developmental Therapeutics Program at https://dtp.cancer.gov/organization/dscb/obtaining/available_plates.htm. All drugs and investigational agents were tested over a range starting from a high concentration at or near the clinical Cmax and decreasing in half-log increments. If the clinical Cmax for an agent had not been determined, the highest concentration tested was 10 microM.
Cell Lines. The patient-derived cancer cell (PDC) lines: 292921-168-R-J2-PDC, K24384-001-R-PDC, and 521955-158-R2-J5-PDC pancreatic carcinomas, 556581-035-R-J1 ovarian carcinoma, 324938-238-R-J1-PDC, 855422-203-R-J1-PDC and 883617-216-R-J1-PDC urothelial bladder carcinomas, 743489-274-T-PDC renal cell carcinoma, 138582-R-J1 Merkel cell tumor, K60290-347-R-J1 and K57222-313-R-J1-PDC glioblastomas, 653999-131-R-J2-PDC, LG0703-F948-PDC, and 349418-098-R-PDC non-small cell lung carcinomas, 885512-296-R-J2-PDC, 171881-019-R-J1-PDC breast carcinomas and 186277-243-T-J2-PDC and 233499-124-R-J2-PDC colon carcinomas were obtained from the NCI Patient-Derived Models Repository (PDMR, https://pdmr.cancer.gov). The established cell lines NCI/ADR-RES (RRID:CVCL_14520 and OVCAR-5 (RRID:CVCL_1628) ovarian carcinomas, 786-O (RRID:CVCL_1051) and A498 (RRID:CVCL_A498) renal cell carcinoma, NCI-H211 (ATCC, cat. CRL-5824; RRID:CVCL_1529), NCI-H196 (ATCC, cat. CRL-5823, RRID:CVCL_1509), SW 1271 (ATCC, cat. CRL-2177, RRID:CVCL_1716) and NCI-H1876 (ATCC, cat. CRL-5902, RRID:CVCL_1503) small cell lung carcinomas, MDA-MB-231 (RRID:CVCL_0062) and MDA-MB-468 (RRID:CVCL_0419)breast carcinomas (10-12). Pooled donor human umbilical vein endothelial cells (HUVEC, Lonza, cat. CC-2519) and human mesenchymal stem cells (hMSC, Lonza, cat. PT-2501) were purchased from Lonza (Walkersville, MD).
Cell Culture. All cells were maintained in an incubator at 37 degrees C and 5% CO2 with 95% humidity. The PDC lines were cultured according to standard operating procedures established by the NCI PDMR (https://pdmr.cancer.gov). Briefly all PDCs were thawed and cultured in Matrigel-coated flasks prepared with a working solution of 1X Ham's F-12 nutrient mix, without supplementation (Invitrogen, Waltham, MA, cat. 11765054), 100 U/mL penicillin-streptomycin (Invitrogen, cat. 15140122), and 2.5% Matrigel (Corning Inc., Corning, NY, cat. 354248) for the first three passages. […]

[1] = curve of first compound, second compound 0.1 µM
[2] = curve of first compound, second compound 0.316 µM
[3] = curve of first compound, second compound 1 µM
[4] = curve of first compound, second compound 3.16 µM
[5] = curve of first compound, second compound 10 µM
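Further: spheroids exposed to agents for seven days before luminescence viability reading.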
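Wherever viability, T/C is given: 100% = DMSO vehicle control viability.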

Molecule `COc1cc(Nc2ncc3c(n2)-c2ccc(Cl)cc2C(c2c(F)cccc2OC)=NC3)ccc1C(=O)O` + NC1CC1c1ccc(-c2cccc(O)c2)cc1 has an IC50 [1] of over 1000 nM, an IC50 [2] of over 1000 nM and an IC50 [3] of 48.3 nM. For the same molecule, the IC50 [4] was 34.1 nM, the IC50 [5] was 25.1 nM and the viability, T/C (second compound 0.1 µM, first compound 0.00316 µM) was 74.2%. For the same molecule, the viability, T/C (second compound 0.1 µM, first compound 0.01 µM) was 72.7%, the viability, T/C (second compound 0.1 µM, first compound 0.0316 µM) was 62.4% and the viability, T/C (second compound 0.1 µM, first compound 0.1 µM) was 57.3%. It also gave a viability, T/C (second compound 0.1 µM, first compound 0.316 µM) of 55.8%, a viability, T/C (second compound 0.1 µM, first compound 1 µM) of 60.3% and a viability, T/C (second compound 0.316 µM, first compound 0.00316 µM) of 68%. The viability, T/C (second compound 0.316 µM, first compound 0.01 µM) was 63.1%, the viability, T/C (second compound 0.316 µM, first compound 0.0316 µM) was 51.9% and the viability, T/C (second compound 0.316 µM, first compound 0.1 µM) was 47.8%. For the same molecule, the viability, T/C (second compound 0.316 µM, first compound 0.316 µM) was 45.5%, the viability, T/C (second compound 0.316 µM, first compound 1 µM) was 58.9% and the viability, T/C (second compound 1 µM, first compound 0.00316 µM) was 61.1%. It also gave a viability, T/C (second compound 1 µM, first compound 0.01 µM) of 62.5%, a viability, T/C (second compound 1 µM, first compound 0.0316 µM) of 52.8% and a viability, T/C (second compound 1 µM, first compound 0.1 µM) of 43.7%. For the same molecule, the viability, T/C (second compound 1 µM, first compound 0.316 µM) was 43.2%, the viability, T/C (second compound 1 µM, first compound 1 µM) was 48.9% and the viability, T/C (second compound 3.16 µM, first compound 0.00316 µM) was 56.6%. The viability, T/C (second compound 3.16 µM, first compound 0.01 µM) was 64%, the viability, T/C (second compound 3.16 µM, first compound 0.0316 µM) was 50.4% and the viability, T/C (second compound 3.16 µM, first compound 0.1 µM) was 39.6%. It also gave a viability, T/C (second compound 3.16 µM, first compound 0.316 µM) of 42.5%, a viability, T/C (second compound 3.16 µM, first compound 1 µM) of 49.8% and a viability, T/C (second compound 10 µM, first compound 0.00316 µM) of 65.4%. It also gave a viability, T/C (second compound 10 µM, first compound 0.01 µM) of 62.4%, a viability, T/C (second compound 10 µM, first compound 0.0316 µM) of 45.7% and a viability, T/C (second compound 10 µM, first compound 0.1 µM) of 44.6%. The viability, T/C (second compound 10 µM, first compound 0.316 µM) was 42.4% and the viability, T/C (second compound 10 µM, first compound 1 µM) was 54.7%.
In the case of `COc1cc(C2c3cc4c(cc3C(OC3OC5COC(C)OC5C(O)C3O)C3COC(=O)C23)OCO4)cc(OC)c1O` (configuration not stated) + NC1CC1c1ccc(-c2cccc(O)c2)cc1, the IC50 [1] is reported as 263 nM, the IC50 [2] is reported as 199 nM and the IC50 [3] is reported as 238 nM. For the same molecule, the IC50 [4] was 275 nM, the IC50 [5] was 317 nM and the viability, T/C (second compound 0.1 µM, first compound 0.00949 µM) was 96.9%. For the same molecule, the viability, T/C (second compound 0.1 µM, first compound 0.03 µM) was 76.4%, the viability, T/C (second compound 0.1 µM, first compound 0.0949 µM) was 62.4% and the viability, T/C (second compound 0.1 µM, first compound 0.3 µM) was 47.8%. It also gave a viability, T/C (second compound 0.1 µM, first compound 0.949 µM) of 40.5%, a viability, T/C (second compound 0.1 µM, first compound 3 µM) of 38.2% and a viability, T/C (second compound 0.316 µM, first compound 0.00949 µM) of 83.1%. The viability, T/C (second compound 0.316 µM, first compound 0.03 µM) was 88.7%, the viability, T/C (second compound 0.316 µM, first compound 0.0949 µM) was 63.4% and the viability, T/C (second compound 0.316 µM, first compound 0.3 µM) was 44.2%. For the same molecule, the viability, T/C (second compound 0.316 µM, first compound 0.949 µM) was 39.9%, the viability, T/C (second compound 0.316 µM, first compound 3 µM) was 34.5% and the viability, T/C (second compound 1 µM, first compound 0.00949 µM) was 74.7%. It also gave a viability, T/C (second compound 1 µM, first compound 0.03 µM) of 77.5%, a viability, T/C (second compound 1 µM, first compound 0.0949 µM) of 60.5% and a viability, T/C (second compound 1 µM, first compound 0.3 µM) of 45.6%. It also gave a viability, T/C (second compound 1 µM, first compound 0.949 µM) of 40.8%, a viability, T/C (second compound 1 µM, first compound 3 µM) of 30.2% and a viability, T/C (second compound 3.16 µM, first compound 0.00949 µM) of 73.5%. For the same molecule, the viability, T/C (second compound 3.16 µM, first compound 0.03 µM) was 82.1%, the viability, T/C (second compound 3.16 µM, first compound 0.0949 µM) was 66% and the viability, T/C (second compound 3.16 µM, first compound 0.3 µM) was 47.9%. For the same molecule, the viability, T/C (second compound 3.16 µM, first compound 0.949 µM) was 41.5%, the viability, T/C (second compound 3.16 µM, first compound 3 µM) was 32.8% and the viability, T/C (second compound 10 µM, first compound 0.00949 µM) was 90.7%. For the same molecule, the viability, T/C (second compound 10 µM, first compound 0.03 µM) was 84.9%, the viability, T/C (second compound 10 µM, first compound 0.0949 µM) was 62.8% and the viability, T/C (second compound 10 µM, first compound 0.3 µM) was 53.6%. It also gave a viability, T/C (second compound 10 µM, first compound 0.949 µM) of 41.3% and a viability, T/C (second compound 10 µM, first compound 3 µM) of 42.8%.
In the case of `CC1COCCN1c1cc(-c2ccnn2C)c2ccnc(-c3ccn[nH]3)c2n1` (configuration not stated), the viability, T/C (compound 0.00316 µM) is reported as 64.7% and 53.9%, the viability, T/C (compound 0.01 µM) is reported as 56.8% and 55.5% and the viability, T/C (compound 0.0316 µM) is reported as 47.3% and 37.6%. For the same molecule, the viability, T/C (compound 0.1 µM) was 46.8% and 42.9%, the viability, T/C (compound 0.316 µM) was 49.4% and 44.7% and the viability, T/C (compound 1 µM) was 38.1% and 38.2%. For the same molecule, the IC50 (curve of compound) was 35.1 nM and 8.59 nM.
